Results: the supplement of paper PMC10627819

What was measured:
B. subtilis 168 [1] = test: fitness (endpoint OD595 vs no drug) (fraction); higher = more growth
In short: (§1)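 Growth medium was TSB, LB Lennox or CY, and plates were kept at 37 °C. Inoculation was at OD595 0.01 in 384-well plates, at 30 µl per well or 55 µl for S. pneumoniae. OD595 was monitored every 30 min for 14 h and background-subtracted using the first reading. Fitness is the optical density on entering stationary phase divided by the robust mean of no-drug controls, with values capped at 1.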

S. aureus DSM 20231 [2] = test: as above
In short: as §1

S. aureus Newman [3] = test: as above
In short: as §1

S. pneumoniae D39V [4] = test: as above
In short: as §1

B. subtilis 168 [5] = test: Bliss interaction score (quartile over a dose matrix) (fitness difference); higher = more antagonism (negative = synergy)
In short: (§2)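 The Bliss score is observed minus expected fitness, where expected fitness is the product of the single-drug fitness values inferred from the combination data. Fitness is the OD595 at the onset of stationary phase over the plate's robust no-drug mean, capped at 1. Scores are summarised by quartiles over technical, biological and donor/recipient replicates.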

S. aureus DSM 20231 [6] = test: as above
In short: as §2

S. aureus Newman [7] = test: as above
In short: as §2

S. pneumoniae D39V [8] = test: as above
In short: as §2
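Wherever Bliss interaction score (quartile over a dose matrix) is given: first quartile when negative (synergy) and third quartile when positive (antagonism).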
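Wherever fitness (endpoint OD595 vs no drug) is given: OD595 on entry to stationary phase over no-drug wells; at most 1.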

O=C(O[C@@H]1Cc2c(O)cc(O)cc2O[C@@H]1c1cc(O)c(O)c(O)c1)c1cc(O)c(O)c(O)c1 [EGCG] + C[n+]1ccc(-c2cc[n+](C)cc2)cc1 [Paraquat]
fitness
Details	first compound 6.25 µg/mL	first compound 12.5 µg/mL	first compound 25 µg/mL	first compound 50 µg/mL
B. subtilis 168 [1], partner 1.25 µg/mL	0.912	–	–	–
B. subtilis 168 [1], partner 2.5 µg/mL	0.918	–	–	–
B. subtilis 168 [1], partner 5 µg/mL	0.836	0.691	–	–
S. aureus DSM 20231 [2], partner 1.25 µg/mL	–	0.792	0.774	–
S. aureus DSM 20231 [2], partner 2.5 µg/mL	–	0.767	0.827	0.609
S. aureus DSM 20231 [2], partner 5 µg/mL	–	0.757	0.733	0.56
S. aureus Newman [3], partner 1.25 µg/mL	–	0.709	0.579	–
S. aureus Newman [3], partner 2.5 µg/mL	–	0.691	0.812	–
S. aureus Newman [3], partner 5 µg/mL	–	–	0.796	0.787
S. pneumoniae D39V [4], partner 1.5 µg/mL	–	0.953	≥ 1	0.952
S. pneumoniae D39V [4], partner 3 µg/mL	–	0.971	0.999	0.839
S. pneumoniae D39V [4], partner 6 µg/mL	–	0.91	≥ 1	≥ 1

Details	Bliss interaction score
B. subtilis 168 [5]	0.0809
S. aureus DSM 20231 [6]	-0.0973
S. aureus Newman [7]	-0.052
S. pneumoniae D39V [8]	0.0566

O=C(O[C@@H]1Cc2c(O)cc(O)cc2O[C@@H]1c1cc(O)c(O)c(O)c1)c1cc(O)c(O)c(O)c1 [EGCG] + Cc1cc(NS(=O)(=O)c2ccc(N)cc2)no1 [Sulfamethoxazol]
fitness, one replicate
Details	first compound 6.25 µg/mL	first compound 12.5 µg/mL	first compound 25 µg/mL	first compound 50 µg/mL
B. subtilis 168 [1], partner 0.5 µg/mL	0.831	0.551	0.271	–
S. aureus Newman [3], partner 8 µg/mL	–	0.712	0.703	0.675

fitness
Details	partner 1 µg/mL	partner 2 µg/mL	partner 4 µg/mL
B. subtilis 168 [1], first compound 6.25 µg/mL	0.881	0.815	0.901
B. subtilis 168 [1], first compound 25 µg/mL	–	0.299	0.341
S. aureus DSM 20231 [2], first compound 12.5 µg/mL	0.841	0.863	0.854
S. aureus DSM 20231 [2], first compound 25 µg/mL	0.769	0.842	0.833
S. aureus DSM 20231 [2], first compound 50 µg/mL	0.75	0.733	0.795
S. aureus Newman [3], first compound 12.5 µg/mL	0.806	0.806	0.786
S. aureus Newman [3], first compound 25 µg/mL	0.764	0.801	0.779
S. aureus Newman [3], first compound 50 µg/mL	0.685	0.783	0.772
S. pneumoniae D39V [4], first compound 12.5 µg/mL	0.934	0.905	0.965
S. pneumoniae D39V [4], first compound 25 µg/mL	0.941	0.966	0.905
S. pneumoniae D39V [4], first compound 50 µg/mL	0.951	≥ 1	0.725

Details	Bliss interaction score
B. subtilis 168 [5]	-0.0762
S. aureus DSM 20231 [6]	0.071
S. aureus Newman [7]	0.0456
S. pneumoniae D39V [8]	0.0423

O=C(O[C@@H]1Cc2c(O)cc(O)cc2O[C@@H]1c1cc(O)c(O)c(O)c1)c1cc(O)c(O)c(O)c1 [EGCG] + Cc1ncc([N+](=O)[O-])n1CCO [Metronidazole]
fitness
Details	partner 0.625 µg/mL	partner 1.073 µg/mL	partner 1.25 µg/mL	partner 2.145 µg/mL	partner 2.5 µg/mL	partner 4.29 µg/mL	partner 5 µg/mL
B. subtilis 168 [1], first compound 6.25 µg/mL	0.969	–	0.944	–	0.928	–	–
S. aureus DSM 20231 [2], first compound 12.5 µg/mL	0.853	–	0.787	–	0.795	–	–
S. aureus DSM 20231 [2], first compound 25 µg/mL	0.792	–	0.807	–	0.838	–	–
S. aureus DSM 20231 [2], first compound 50 µg/mL	0.779	–	0.753	–	0.841	–	–
S. aureus Newman [3], first compound 12.5 µg/mL	0.833	–	0.847	–	0.809	–	–
S. aureus Newman [3], first compound 25 µg/mL	0.833	–	0.807	–	0.785	–	–
S. aureus Newman [3], first compound 50 µg/mL	0.769	–	0.747	–	0.736	–	–
S. pneumoniae D39V [4], first compound 12.5 µg/mL	–	0.888	0.956	0.493	0.982	0.825	0.976
S. pneumoniae D39V [4], first compound 25 µg/mL	–	0.839	0.979	–	≥ 1	–	0.984
S. pneumoniae D39V [4], first compound 50 µg/mL	–	0.803	0.813	0.391	0.949	0.602	0.907

fitness, S. aureus Newman [3], one replicate
Details	first compound 12.5 µg/mL	first compound 25 µg/mL	first compound 50 µg/mL
partner 0.781 µg/mL	0.781	0.807	0.943
partner 1.562 µg/mL	0.8	0.833	≥ 1
partner 3.124 µg/mL	0.782	0.81	0.963

Details	Bliss interaction score
B. subtilis 168 [5]	-0.039
S. aureus DSM 20231 [6]	-0.112
S. aureus Newman [7]	0.0648
S. pneumoniae D39V [8]	-0.0826

O=C(O[C@@H]1Cc2c(O)cc(O)cc2O[C@@H]1c1cc(O)c(O)c(O)c1)c1cc(O)c(O)c(O)c1 [EGCG] + Cc1onc(-c2ccccc2)c1C(=O)N[C@@H]1C(=O)N2[C@@H]1SC(C)(C)[C@@H]2C(=O)O [Oxacillin]
fitness
Details	first compound 6.25 µg/mL	first compound 12.5 µg/mL	first compound 25 µg/mL	first compound 50 µg/mL
B. subtilis 168 [1], partner 0.002 µg/mL	0.935	–	0.202	–
B. subtilis 168 [1], partner 0.004 µg/mL	0.924	0.538	0.205	–
B. subtilis 168 [1], partner 0.008 µg/mL	0.898	0.525	0.186	–
S. aureus DSM 20231 [2], partner 0.0156 µg/mL	–	0.645	0.582	0.62
S. aureus DSM 20231 [2], partner 0.0312 µg/mL	–	0.498	0.548	–
S. aureus DSM 20231 [2], partner 0.0625 µg/mL	–	0.442	0.393	0.34
S. aureus Newman [3], partner 0.0156 µg/mL	–	0.591	0.605	–
S. aureus Newman [3], partner 0.0312 µg/mL	–	0.624	0.681	–
S. aureus Newman [3], partner 0.0625 µg/mL	–	0.59	0.636	–
S. pneumoniae D39V [4], partner 0.005 µg/mL	–	0.989	0.973	≥ 1
S. pneumoniae D39V [4], partner 0.01 µg/mL	–	0.924	0.903	0.966
S. pneumoniae D39V [4], partner 0.02 µg/mL	–	0.929	0.947	0.923
S. pneumoniae D39V [4], partner 0.04 µg/mL	–	0.474	0.576	0.632

fitness, B. subtilis 168 [1], one replicate
Details	partner 0.0078 µg/mL	partner 0.0155 µg/mL	partner 0.031 µg/mL	partner 0.075 µg/mL	partner 0.15 µg/mL	partner 0.3 µg/mL
first compound 6.25 µg/mL	0.998	0.978	0.972	0.515	0.0556	0.0544
first compound 12.5 µg/mL	0.858	0.852	0.792	0.444	0.0247	0.0417
first compound 25 µg/mL	0.602	0.559	0.434	0.139	0.0233	0.024

Details	Bliss interaction score
B. subtilis 168 [5]	-0.0648
S. aureus DSM 20231 [6]	-0.0707
S. aureus Newman [7]	0.0991
S. pneumoniae D39V [8]	0.0942
